Test results from ChEMBL document CHEMBL2169878 (J Med Chem, 2012).

Experiments:
[1] = Cytotoxicity against human HepG2 cells after 24 hrs by neutral red dye uptake assay; type: cell-based; conditions: read-out: TC50
Salmonella typhimurium [2] = assay: Mutagenicity against Salmonella typhimurium TA100 assessed as revertants at 3 uM incubated for 90 mins followed by drug washout measured after 2 days relative to positive control; type: toxicity, organism-based; conditions: salmonella enterica subsp. enterica serovar typhimurium, 1.5 h
Plasmodium falciparum [3] = assay: Antiplasmodial activity against chloroquine-resistant Plasmodium falciparum K1 infected in human erythrocytes assessed as inhibition of [3H]hypoxanthine incorporation incubated for 48 hrs prior to [3H]hypoxanthine addition measured after 48 hrs by liquid scintillation counting; type: functional, organism-based
Salmonella typhimurium [4] = assay: Mutagenicity against Salmonella typhimurium TA100 assessed as revertants at 25 uM incubated for 90 mins followed by drug washout measured after 2 days relative to positive control; type: toxicity, organism-based; conditions: salmonella enterica subsp. enterica serovar typhimurium
Salmonella typhimurium [5] = assay: Mutagenicity against Salmonella typhimurium TA100 assessed as revertants at 13 uM incubated for 90 mins followed by drug washout measured after 2 days relative to positive control; type: toxicity, organism-based; conditions: salmonella enterica subsp. enterica serovar typhimurium
Plasmodium falciparum [6] = assay: Antiplasmodial activity against chloroquine-sensitive Plasmodium falciparum D10 infected in human RBC after 72 hrs by parasite lactate dehydrogenase assay; type: functional, organism-based; conditions: D10, 72 h
[7] = target: T1, Chloroquine resistance transporter (Plasmodium falciparum) (UniProt Q9N623); assay: Inhibition of chloroquine-resistant Plasmodium falciparum Dd2 CRT expressed in Xenopus laevis oocyte assessed as inhibition of [3H]chloroquine uptake at 100 uM measured from 1 to 2 hrs
T1 sequence (whole entry): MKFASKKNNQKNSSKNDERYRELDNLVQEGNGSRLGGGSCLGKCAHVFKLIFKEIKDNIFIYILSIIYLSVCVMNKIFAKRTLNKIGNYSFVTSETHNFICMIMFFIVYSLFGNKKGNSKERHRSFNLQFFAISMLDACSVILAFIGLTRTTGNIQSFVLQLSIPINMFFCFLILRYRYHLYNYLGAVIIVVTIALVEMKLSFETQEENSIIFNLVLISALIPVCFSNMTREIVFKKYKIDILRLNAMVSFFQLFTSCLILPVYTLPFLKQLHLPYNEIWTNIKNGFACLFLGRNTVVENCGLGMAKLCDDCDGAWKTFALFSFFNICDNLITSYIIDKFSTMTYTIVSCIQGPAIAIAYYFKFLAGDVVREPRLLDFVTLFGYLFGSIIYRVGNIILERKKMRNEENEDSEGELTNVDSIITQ

Salmonella typhimurium [8] = assay: Mutagenicity against Salmonella typhimurium TA98 assessed as revertants at 3 uM incubated for 90 mins followed by drug washout measured after 2 days relative to positive control; type: toxicity, organism-based; conditions: salmonella enterica subsp. enterica serovar typhimurium, 1.5 h
Plasmodium falciparum [9] = assay: Antiplasmodial activity against chloroquine-resistant Plasmodium falciparum W2 infected in human RBC after 72 hrs by parasite lactate dehydrogenase assay; type: functional, organism-based; conditions: W2, 72 h
Salmonella typhimurium [10] = assay: Mutagenicity against Salmonella typhimurium TA98 assessed as revertants at 1.5 uM incubated for 90 mins followed by drug washout measured after 2 days relative to positive control; type: toxicity, organism-based; conditions: salmonella enterica subsp. enterica serovar typhimurium, 1.5 h
Salmonella typhimurium [11] = assay: Mutagenicity against Salmonella typhimurium TA98 assessed as revertants at 50 uM incubated for 90 mins followed by drug washout measured after 2 days relative to positive control; type: toxicity, organism-based; conditions: salmonella enterica subsp. enterica serovar typhimurium, 1.5 h
Salmonella typhimurium [12] = assay: Mutagenicity against Salmonella typhimurium TA98 assessed as revertants at 6 uM incubated for 90 mins followed by drug washout measured after 2 days relative to positive control; type: toxicity, organism-based; conditions: salmonella enterica subsp. enterica serovar typhimurium, 1.5 h
[13] = Cytotoxicity against mouse NIH3T3 cells after 24 hrs by neutral red dye uptake assay; type: cell-based; conditions: read-out: TC50
Salmonella typhimurium [14] = assay: Mutagenicity against Salmonella typhimurium TA100 assessed as revertants at 50 uM incubated for 90 mins followed by drug washout measured after 2 days relative to positive control; type: toxicity, organism-based; conditions: salmonella enterica subsp. enterica serovar typhimurium
Salmonella typhimurium [15] = assay: Mutagenicity against Salmonella typhimurium TA98 assessed as revertants at 13 uM incubated for 90 mins followed by drug washout measured after 2 days relative to positive control; type: toxicity, organism-based; conditions: salmonella enterica subsp. enterica serovar typhimurium, 1.5 h
Plasmodium falciparum [16] = assay: Antiplasmodial activity against chloroquine-sensitive Plasmodium falciparum NF54 infected in human erythrocytes assessed as inhibition of [3H]hypoxanthine incorporation incubated for 48 hrs prior to [3H]hypoxanthine addition measured after 48 hrs by liquid scintillation counting; type: functional, organism-based
Salmonella typhimurium [17] = assay: Mutagenicity against Salmonella typhimurium TA100 assessed as revertants at 6 uM incubated for 90 mins followed by drug washout measured after 2 days relative to positive control; type: toxicity, organism-based; conditions: salmonella enterica subsp. enterica serovar typhimurium, 1.5 h
Salmonella typhimurium [18] = assay: Mutagenicity against Salmonella typhimurium TA100 assessed as revertants at 1.5 uM incubated for 90 mins followed by drug washout measured after 2 days relative to positive control; type: toxicity, organism-based; conditions: salmonella enterica subsp. enterica serovar typhimurium, 1.5 h
Salmonella typhimurium [19] = assay: Mutagenicity against Salmonella typhimurium TA98 assessed as revertants at 25 uM incubated for 90 mins followed by drug washout measured after 2 days relative to positive control; type: toxicity, organism-based; conditions: salmonella enterica subsp. enterica serovar typhimurium
Salmonella typhimurium [20] = assay: Mutagenicity against Salmonella typhimurium TA98 assessed as revertants at 9 uM incubated for 90 mins followed by drug washout measured after 2 days relative to positive control; type: toxicity, organism-based; conditions: salmonella enterica subsp. enterica serovar typhimurium
Salmonella typhimurium [21] = assay: Mutagenicity against Salmonella typhimurium TA100 assessed as revertants at 35 uM incubated for 90 mins followed by drug washout measured after 2 days relative to positive control; type: toxicity, organism-based; conditions: salmonella enterica subsp. enterica serovar typhimurium
Salmonella typhimurium [22] = assay: Mutagenicity against Salmonella typhimurium TA98 assessed as revertants at 70 uM incubated for 90 mins followed by drug washout measured after 2 days relative to positive control; type: toxicity, organism-based; conditions: salmonella enterica subsp. enterica serovar typhimurium
Salmonella typhimurium [23] = assay: Mutagenicity against Salmonella typhimurium TA98 assessed as revertants at 18 uM incubated for 90 mins followed by drug washout measured after 2 days relative to positive control; type: toxicity, organism-based; conditions: salmonella enterica subsp. enterica serovar typhimurium
Salmonella typhimurium [24] = assay: Mutagenicity against Salmonella typhimurium TA98 assessed as revertants at 35 uM incubated for 90 mins followed by drug washout measured after 2 days relative to positive control; type: toxicity, organism-based; conditions: salmonella enterica subsp. enterica serovar typhimurium, 1.5 h
Salmonella typhimurium [25] = assay: Mutagenicity against Salmonella typhimurium TA98 assessed as revertants at 2 uM incubated for 90 mins followed by drug washout measured after 2 days relative to positive control; type: toxicity, organism-based; conditions: salmonella enterica subsp. enterica serovar typhimurium, 1.5 h
Salmonella typhimurium [26] = assay: Mutagenicity against Salmonella typhimurium TA100 assessed as revertants at 4 uM incubated for 90 mins followed by drug washout measured after 2 days relative to positive control; type: toxicity, organism-based; conditions: salmonella enterica subsp. enterica serovar typhimurium, 1.5 h
Plasmodium falciparum [27] = assay: Resistance ratio of IC50 for chloroquine-resistant Plasmodium falciparum K1 to IC50 for chloroquine-sensitive Plasmodium falciparum NF54; type: functional
Salmonella typhimurium [28] = assay: Mutagenicity against Salmonella typhimurium TA100 assessed as revertants at 9 uM incubated for 90 mins followed by drug washout measured after 2 days relative to positive control; type: toxicity, organism-based; conditions: salmonella enterica subsp. enterica serovar typhimurium, 1.5 h
Salmonella typhimurium [29] = assay: Mutagenicity against Salmonella typhimurium TA100 assessed as revertants at 18 uM incubated for 90 mins followed by drug washout measured after 2 days relative to positive control; type: toxicity, organism-based; conditions: salmonella enterica subsp. enterica serovar typhimurium
Plasmodium falciparum [30] = assay: Resistance ratio of IC50 for chloroquine-resistant Plasmodium falciparum W2 to IC50 for chloroquine-sensitive Plasmodium falciparum D10; type: functional
Salmonella typhimurium [31] = assay: Mutagenicity against Salmonella typhimurium TA100 assessed as revertants at 2 uM incubated for 90 mins followed by drug washout measured after 2 days relative to positive control; type: toxicity, organism-based; conditions: salmonella enterica subsp. enterica serovar typhimurium
Salmonella typhimurium [32] = assay: Mutagenicity against Salmonella typhimurium TA98 assessed as revertants at 4 uM incubated for 90 mins followed by drug washout measured after 2 days relative to positive control; type: toxicity, organism-based; conditions: salmonella enterica subsp. enterica serovar typhimurium
Salmonella typhimurium [33] = assay: Mutagenicity against Salmonella typhimurium TA100 assessed as revertants at 70 uM incubated for 90 mins followed by drug washout measured after 2 days relative to positive control; type: toxicity, organism-based; conditions: salmonella enterica subsp. enterica serovar typhimurium

For `Fc1cc(C(Nc2ccnc3cc(Cl)ccc23)c2ccc(Cl)cc2)ccc1CN1CCCC1` (racemic), which CC50 at 24 h [1] is on record?
The CC50 at 24 h was 12000 nM.

What about the Activity (Salmonella typhimurium [2]) of the same compound?
Its Activity is 10%.

What about the IC50 (Plasmodium falciparum [3]) of the same compound?
The IC50 was 20 nM.

What about the Activity (Salmonella typhimurium [4]) of the same compound?
Its Activity is 11%.

And the Activity (Salmonella typhimurium [5])?
Its Activity is 11%.

And the IC50 (Plasmodium falciparum [6])?
The IC50 was 59 nM.

What about the inhibition [7] of the same compound?
The inhibition was 70%.

What about the Activity (Salmonella typhimurium [8]) of the same compound?
The Activity was 5%.

And the IC50 (Plasmodium falciparum [9])?
Its IC50 is 45 nM.

What about the Activity (Salmonella typhimurium [10]) of the same compound?
The Activity was 4%.

What about the Activity (Salmonella typhimurium [11]) of the same compound?
Its Activity is 8%.

And the Activity (Salmonella typhimurium [12])?
The Activity was 3%.

What about the CC50 at 24 h [13] of the same compound?
The CC50 at 24 h was 25000 nM.

What about the Activity (Salmonella typhimurium [14]) of the same compound?
The Activity was 11%.

And the Activity (Salmonella typhimurium [15])?
The Activity was 3%.

And the IC50 (Plasmodium falciparum [16])?
Its IC50 is 13 nM.

What about the Activity (Salmonella typhimurium [17]) of the same compound?
Its Activity is 10%.

What about the Activity (Salmonella typhimurium [18]) of the same compound?
Its Activity is 12%.

What about the Activity (Salmonella typhimurium [19]) of the same compound?
Its Activity is 11%.

For `Clc1ccc(C(Nc2ccnc3cc(Cl)ccc23)c2ccc(Cn3ccnc3)cc2)cc1` (racemic), which Activity (Salmonella typhimurium [20]) is on record?
The Activity was 0%.

And the CC50 at 24 h [1]?
Its CC50 at 24 h is 22000 nM.

And the IC50 (Plasmodium falciparum [3])?
The IC50 was 22 nM.

And the Activity (Salmonella typhimurium [21])?
The Activity was 2%.

And the Activity (Salmonella typhimurium [22])?
The Activity was 2%.

What about the Activity (Salmonella typhimurium [23]) of the same compound?
Its Activity is 3%.

What about the Activity (Salmonella typhimurium [24]) of the same compound?
Its Activity is 3%.

And the IC50 (Plasmodium falciparum [6])?
The IC50 was 30 nM.

And the Activity (Salmonella typhimurium [25])?
Its Activity is 0%.

And the Activity (Salmonella typhimurium [26])?
The Activity was 6%.

And the IC50 (Plasmodium falciparum [9])?
The IC50 was 57 nM.

And the “Ratio IC50” value (Plasmodium falciparum [27])?
Its value is 1.2.

And the Activity (Salmonella typhimurium [28])?
The Activity was 7%.

What about the Activity (Salmonella typhimurium [29]) of the same compound?
Its Activity is 5%.

And the “Ratio IC50” value (Plasmodium falciparum [30])?
Its value is 1.9.

And the Activity (Salmonella typhimurium [31])?
The Activity was 6%.

And the CC50 at 24 h [13]?
The CC50 at 24 h was 35000 nM.

What about the Activity (Salmonella typhimurium [32]) of the same compound?
The Activity was 7%.

What about the IC50 (Plasmodium falciparum [16]) of the same compound?
The IC50 was 18 nM.

And the Activity (Salmonella typhimurium [33])?
The Activity was 2%.
